Test results from PubChem BioAssay (NCI).
Values joined by “and” are separate entries in the source; they are usually repeats but may differ in a detail not shown here. Equal entries are not always repeated.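 A five-concentration, 48-hour dose response in 96-well plates underlies each endpoint, interpolated linearly between surrounding concentrations. GI50: concentration for 50% inhibition of growth. TGI is the concentration that stops growth completely.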

Experiments:
Assay in all cases: NCI anticancer screen, dose series, 48 h
[1] = tested on: SK-MEL-28 melanoma
[2] = tested on: HOP-62 NSCLC
[3] = tested on: LOX IMVI melanoma
[4] = tested on: SK-OV-3 ovarian
[5] = tested on: EKVX NSCLC
[6] = tested on: PC-3 prostate
[7] = tested on: 786-0 renal
[8] = tested on: U251 CNS
[9] = tested on: SN12C renal
[10] = tested on: OVCAR-5 ovarian

Row | SMILES | GI50 [1] | TGI [1] | GI50 [2] | TGI [2] | GI50 [3] | TGI [3] | GI50 [4] | TGI [4] | GI50 [5] | TGI [5] | GI50 [6] | TGI [6] | GI50 [7] | TGI [7] | GI50 [8] | TGI [8] | GI50 [9] | TGI [9] | GI50 [10] | TGI [10]
1 | Cc1cc(I)cc(CN(C)CCCCN2CCCCC2)c1O | 4.21 µM | 15.8 µM | 14.4 µM | 28.3 µM | 11.5 µM | 24 µM | 18.3 µM | 42.4 µM | 20.9 µM | 87.3 µM | 15 µM | 32 µM | 12.6 µM | 25.4 µM | 13.7 µM | 31.2 µM | 35.5 µM | > 100 µM | 14.3 µM | 40.5 µM
2 | O=C1C(Cl)=C(Nc2cccc(Cl)c2)C(=O)N1Cc1ccc(Cl)cc1Cl | 1.67 µM | 14.2 µM | 5.61 µM | 22.8 µM | < 0.0316 µM | 11.5 µM | 3.57 µM | 20.6 µM | 9.31 µM | 34.4 µM | 2.94 µM | > 50.3 µM | – | 4.93 µM | – | 13.7 µM | 0.252 µM | 12.8 µM | 11.6 µM | 37.1 µM
3 | CC1(C)CCc2c(c3c(c4c(=O)c(O)c(-c5ccc(O)cc5)oc24)OC(C)(C)CC3)O1 | > 100 µM | > 100 µM | 24.8 µM | 54.7 µM | 90.5 µM | > 100 µM | 23.2 µM | 53.4 µM | 34.5 µM | > 100 µM | > 100 µM | > 100 µM | 37.7 µM | > 100 µM | 24.7 µM | 65.5 µM | 82.9 µM | > 100 µM | > 100 µM | > 100 µM
4 | Clc1ccc2c(NCCCCNc3nc(N4CCCCC4)nc4ccccc34)ccnc2c1 | 1.89 µM | 3.82 µM | 1.9 µM | 5.88 µM | 1.5 µM | 3.14 µM | 3.81 µM | 14.4 µM | 2.69 µM | 13.8 µM | 3.33 µM | 14.6 µM | 1.44 µM | 2.76 µM | 2.02 µM | 4.56 µM | 2.78 µM | 12.7 µM | 2.17 µM | 9.23 µM
5 | COc1cc(-c2nn(-c3ccc(NC(=O)c4ccc(Cl)c(C(F)(F)F)c4)cc3)cc2-c2ccncc2)ccc1Cl | 2.62 µM | > 61.9 µM | 2.07 µM | 7.07 µM | 1.55 µM | 3.88 µM | > 27.1 µM | > 100 µM | 2.18 µM | > 65.1 µM | 3.04 µM | > 100 µM | 1.2 µM | 2.86 µM | 2.08 µM | 56.7 µM | 4.64 µM | > 100 µM | 4.58 µM | > 39.6 µM
6 | O=C(Nc1ccccc1OC(F)(F)F)Nc1n[nH]c2ccccc12 | 42.2 µM | > 100 µM | 19.6 µM | 73.4 µM | 22.5 µM | > 100 µM | > 100 µM | > 100 µM | 48.2 µM | > 100 µM | 31.4 µM | > 100 µM | 38.7 µM | > 100 µM | 31.1 µM | > 100 µM | 72.5 µM | > 100 µM | 34.3 µM | > 100 µM
7 | C=C(CN1CCN(c2ccc(Cl)cc2F)CC1)c1ccc(C(=O)Nc2ccccc2N)cc1 | > 26.8 µM | > 100 µM | 3.42 µM | 27.8 µM | 3 µM | 8.43 µM | – | > 25.7 µM | 11.5 µM | > 100 µM | 1.55 µM | > 100 µM | 2.28 µM | > 100 µM | 1.8 µM | 21.5 µM | 1.87 µM | > 100 µM | 51.7 µM | > 100 µM
8 | O=S(=O)(NC1=NCCN1C(=S)SN1CCn2c1nsc2=S)c1ccc(OC(F)(F)F)cc1 | 22.7 µM | 64 µM | 16.3 µM | 33 µM | 8.6 µM | 22.9 µM | 19.5 µM | 34.6 µM | 5.11 µM | 19.6 µM | 13.1 µM | 37.2 µM | 8.53 µM | 21.6 µM | 14.4 µM | 29.4 µM | 14.5 µM | 30.3 µM | 21.8 µM | 36.7 µM
9 | COC1=CC(=O)c2nc(-c3ccncc3)[nH]c2C1=O | > 100 µM | > 100 µM | > 100 µM | > 100 µM | > 100 µM | > 100 µM | > 100 µM | > 100 µM | > 100 µM | > 100 µM | > 100 µM | > 100 µM | > 100 µM | > 100 µM | > 100 µM | > 100 µM | > 100 µM | > 100 µM | > 100 µM | > 100 µM
10 | CC(C)CCC[C@@H](C)[C@H]1CC[C@H]2[C@@H]3CC=C4C[C@@H](C(C(=O)O)C(=O)O)CC[C@]4(C)[C@H]3CC[C@]12C | 0.143 µM | 0.469 µM | 0.176 µM | 0.747 µM | 0.139 µM | 0.468 µM | 0.298 µM | 3.15 µM | 0.0786 µM | 0.245 µM | 0.177 µM | 2.19 µM | 0.288 µM | 2.51 µM | 0.129 µM | 0.408 µM | 0.137 µM | 0.457 µM | 0.198 µM | 5.56 µM
11 | COC(=O)[C@@H]1[C@H](O)[C@H](C)[C@H](O)[C@@](C)(O)/C=C\C=C(C)C(=O)Nc2c(C)c(OC(C)=O)c3c(c2O)C(=O)C(C)=C2OCOC(=C23)C(C)=C[C@@](C)(O)[C@H](O)[C@@H](C)[C@H]1OC(C)=O | – | > 100 µM | – | > 100 µM and 66.9 µM | – | > 100 µM and 66.9 µM and 41.7 µM | > 66.9 µM | > 100 µM | > 66.9 µM | > 100 µM | – | > 66.9 µM | – | > 100 µM | > 66.9 µM | > 100 µM and > 66.9 µM and 62.8 µM | 49.8 µM | > 100 µM and 66.9 µM | – | > 100 µM
12 | O=C(/C=C/C12c3ccccc3C(c3ccccc31)C1C(=O)NC(=O)C12)c1ccncc1 (stereo unspecified) | 2.1 µM | 4.57 µM | 2.4 µM | 6.73 µM | 1.68 µM | 3.51 µM | 13.2 µM | 26.7 µM | 6.02 µM | 20.8 µM | 1.97 µM | 5.4 µM | 1.94 µM | 4.76 µM | 1.62 µM | 3.34 µM | 2.55 µM | 12 µM | 3.11 µM | 13.5 µM
13 | c1ccc2cc(-c3cc(-c4cc(-c5ccc6ccccc6c5)on4)no3)ccc2c1 | – | > 100 µM | – | > 100 µM | – | > 100 µM | – | > 100 µM | – | > 100 µM | – | > 100 µM | – | > 100 µM | – | > 100 µM | – | > 100 µM | – | > 100 µM
14 | O=C(Nc1ccc(Cl)c(Cl)c1)Nc1ccc(Cl)c(Cl)c1 | 3.24 µM and 4.13 µM | 14.2 µM and > 100 µM | 3.02 µM and 5.73 µM | 11.4 µM and 31.2 µM | 2.26 µM and 2.95 µM | 4.94 µM and 10.3 µM | 3.39 µM and 3.82 µM | 11.6 µM and 15.9 µM | 2.36 µM | 11.1 µM | 2.82 µM and 1.78 µM | 12.3 µM and 9.82 µM | 3.79 µM and 3.21 µM | 14.4 µM and 13 µM | 2.67 µM and 1.77 µM | 11.2 µM and 5.14 µM | 3.1 µM and 2.83 µM | 11.8 µM and 10.7 µM | 2.74 µM and 4.27 µM | 7.53 µM and 17.6 µM
